{"source": "patent US20230210857A1", "about": "“RESPIRATORY STIMULANT PARENTERAL FORMULATIONS” (Enalare Therapeutics Inc., priority 2021, published 2023)", "key": {"[1]": {"assay": "pH solubility study (100 mM citric acid, shaken overnight at room temperature, HPLC assay)", "assay_type": "physicochemical", "procedure": "A pH solubility study was performed to assess the feasibility of formulating the active agent (N-(4,6-Bis-n-propylamino-[1,3,5]triazin-2-yl)-O,N-dimethyl-hydroxylamine) as a simple buffered solution at a reasonable pH for an IV formulation.\nMethodology: The active agent (N-(4,6-Bis-n-propyl amino-[1,3,5]triazin-2-yl)-O,N-dimethyl-hydroxylamine) and H2SO4 solution of concentration ˜107 mg/mL in 100 mM citric acid at pH 2.5 was prepared. About 150 μL aliquots of this solution were transferred into 6 separate glass HPLC vials. All the samples, including the solution at pH 2.5, were shaken overnight at room temperature using a gyratory shaker. After shaking, the samples were evaluated visually for the presence of precipitate and were then spin filtered through 0.45 μm syringe tip filters (4 mm diameter) at 3000 rpm for 20 min. The final pH values of the filtrates were measured. The filtrates were then diluted appropriately and analyzed for the active agent (N-(4,6-Bis-n-propylamino-[1,3,5]triazin-2-yl)-O,N-dimethyl-hydroxylamine). H2SO4 concentration using the HPLC assay.\nResults: The pH values of the samples prior to and after shaking overnight, appearance as well as concentrations of samples are shown in Table 12."}, "[2]": {"assay": "Three-phase pharmacokinetics (PK) study in minipigs, single IV and IM doses", "conditions": "male, Gottingen, minipig, in vivo; for AUC(0-inf): AUCINF; for AUC(0-t): AUClast; for half-life: T1/2", "procedure": "The study consisted of conducting a bioequivalence (BE) study in minipigs. Two formulations of a Compound having Formula (I) (N-(4,6-Bis-n-propylamino-[1,3,5]triazin-2-yl)-O,N-dimethyl-hydroxylamine) were tested in the study as follows:\nFor IV administration, minipigs (n=3) received a single IV bolus (1-2 minutes) administration of the Compound having Formula (I) (N-(4,6-Bis-n-propylamino-[1,3,5]triazin-2-yl)-O,N-dimethyl-hydroxylamine) via VAP (vascular access port) at the jugular vein. For IM administration, minipigs (n=3) received a single IM administration of Compound having Formula (I) (N-(4,6-Bis-n-propylamino-[1,3,5]triazin-2-yl)-O,N-dimethyl-hydroxylamine) via the lateral neck muscle (behind the ear). The animals were dosed before noon on dosing days. The routes allowed for the determination of pharmacokinetics of Compound having Formula (I) (N-(4,6-Bis-n-propylamino-[1,3,5]triazin-2-yl)-O,N-dimethyl-hydroxylamine) from IV and IM administration.\nA PK study was conducted in male Gottingen minipigs (n=3), which were administered in a single IV and subsequent IM doses using the dosing scheme outlined in Table 25. There was a minimum of 3 day washout period between dose events.\nThe mean dose for IV dose Group 1 was 4.79+/−0.012 mg/kg. The mean dose for IM dose Group 2 was 4.82+/−0.036 mg/kg. The mean dose for IM dose Group 3 was 4.79+/−0.033 mg/kg. All through groups nominal doses were 4.8 mg/kg. These does were based on the nominal concentrations of the Compound having Formula (I) (N-(4,6-Bis-n-propylamino-[1,3,5]triazin-2-yl)-O,N-dimethyl-hydroxylamine) in the dose formulations (purity, water, and salt content corrected).\nFor IV administration, minipigs (n=3) received a single IV bolus (1-2 minutes) administration of Compound having Formula (I) (N-(4,6-Bis-n-propylamino-[1,3,5]triazin-2-yl)-O,N-dimethyl-hydroxylamine) via a Vascular access port (VAP) in the jugular vein. For IM administration, minipigs (n=3) received a single IM administration of each IM formulation via the lateral neck muscle (behind the ear). For each dose event, blood samples were collected at 8 time points: 0.083, 0.167, 0.25, 0.5, 1, 2, 4 and 24 hours post dose. General observations were conducted twice-daily for any treatment-related effects/toxicity and/or tolerability. Table 26 includes the Plasma Concentration Descriptive Statistics of Compound having Formula (I) (N-(4,6-Bis-n-propylamino-[1,3,5]triazin-2-yl)-O,N-dimethyl-hydroxylamine). Table 27 illustrates the plasma concentration pharmacokinetic parameters of Compound having Formula (I) (N-(4,6-Bis-n-propylamino-[1,3,5]triazin-2-yl)-O,N-dimethyl-hydroxylamine).\nThe plasma concentration descriptive statistics of the compound having Formula (I) (N-(4,6-Bis-n-propyl amino-[1,3,5]triazin-2-yl)-O,N-dimethyl-hydroxyl amine) are presented in Table 28.\nThe T1/2 values were 3.0 hours for IV Group 1 and 3.2 hours and 2.7 hours for IM Groups 2 and 3, respectively.\nFor each dose level, Cmax was higher for IV dosing than for IM dosing whereas AUClast was higher for IM dosing than for IV dosing.\nThe IV and IM bioavailability of a Compound having Formula (I) (N-(4,6-Bis-n-propylamino-[1,3,5]triazin-2-yl)-O,N-dimethyl-hydroxylamine) is presented in Table 30.\nThe IV formulation single injection yielded higher Cmax and shorter time to Cmax(Tmax). […] From the present pharmacokinetic study, it is believed that IM Formulation 1 is a simple formulation with high solubility and shorter Tmax, while IM Formulation 2 has higher absorption in both rats and minipig."}, "[3]": {"conditions": "iv, 4.8 mg/kg, Mean plasma concentration"}}, "data": [{"molecule": "CCCNc1nc(NCCC)nc(N(C)OC)n1", "note": "[active agent, N-(4,6-Bis-n-propylamino-[1,3,5]triazin-2-yl)-O,N-dimethyl-hydroxylamine]", "values": [{"measurement": "Active Agent · H2SO4 Concentration", "setting": "[1]; pH 2.42", "result": 104.1, "unit": "mg/mL"}, {"measurement": "Active Agent · H2SO4 Concentration", "setting": "[1]; pH 3", "result": 99.8, "unit": "mg/mL"}, {"measurement": "Active Agent · H2SO4 Concentration", "setting": "[1]; pH 3.51", "result": 101.6, "unit": "mg/mL"}, {"measurement": "Appearance after Shaking", "setting": "[1]; target pH 2.5", "result": "Clear solution"}, {"measurement": "Appearance after Shaking", "setting": "[1]; target pH 3.0", "result": "Clear solution"}, {"measurement": "Appearance after Shaking", "setting": "[1]; target pH 3.5", "result": "Clear solution"}, {"measurement": "Appearance after Shaking", "setting": "[1]; target pH 4.0", "result": "Precipitate"}, {"measurement": "Appearance after Shaking", "setting": "[1]; target pH 4.5", "result": "Precipitate"}, {"measurement": "Appearance after Shaking", "setting": "[1]; target pH 5.0", "result": "Precipitate"}, {"measurement": "Appearance after Shaking", "setting": "[1]; target pH 5.5", "result": "Precipitate"}, {"measurement": "bioavailability", "setting": "[2]", "result": 117.2, "unit": "%"}, {"measurement": "bioavailability", "setting": "[2]; Bioavailability", "result": 113, "unit": "%"}, {"measurement": "AUClast", "setting": "[2]; im, 4.8 mg/kg", "result": 2711, "unit": "ng·h/mL"}, {"measurement": "T1/2", "setting": "[2]; im, 4.8 mg/kg", "result": 2.7, "unit": "h"}, {"measurement": "AUC(0-inf)", "setting": "[2]; im, 4.8 mg/kg", "result": 2720, "unit": "ng·h/mL"}, {"measurement": "AUC(0-t)", "setting": "[2]; im, 4.8 mg/kg", "result": 2620, "unit": "ng·h/mL"}, {"measurement": "Cmax", "setting": "[2]; im, 4.8 mg/kg", "result": 466, "unit": "ng/mL"}, {"measurement": "half-life", "setting": "[2]; im, 4.8 mg/kg", "result": 3.2, "unit": "h"}, {"measurement": "Tmax", "setting": "[2]; im, 4.8 mg/kg", "result": 0.5, "unit": "h"}, {"measurement": "AUC(0-inf)", "setting": "[2]; iv, 4.8 mg/kg", "result": 2320, "unit": "ng·h/mL"}, {"measurement": "AUC(0-t)", "setting": "[2]; iv, 4.8 mg/kg", "result": 2310, "unit": "ng·h/mL"}, {"measurement": "bioavailability", "setting": "[2]; iv, 4.8 mg/kg, Bioavailability", "result": 100, "unit": "%"}, {"measurement": "Cmax", "setting": "[2]; iv, 4.8 mg/kg", "result": 2820, "unit": "ng/mL"}, {"measurement": "concentration at 0.083 hr", "setting": "[2]; [3]", "result": 2820, "unit": "ng/mL"}, {"measurement": "concentration at 0.167 hr", "setting": "[2]; [3]", "result": 2010, "unit": "ng/mL"}, {"measurement": "concentration at 0.25 hr", "setting": "[2]; [3]", "result": 1500, "unit": "ng/mL"}, {"measurement": "concentration at 0.5 hr", "setting": "[2]; [3]", "result": 1020, "unit": "ng/mL"}, {"measurement": "concentration at 1 hr", "setting": "[2]; [3]", "result": 519, "unit": "ng/mL"}, {"measurement": "concentration at 2 hr", "setting": "[2]; [3]", "result": 186, "unit": "ng/mL"}, {"measurement": "concentration at 4 hr", "setting": "[2]; [3]", "result": 40, "unit": "ng/mL"}, {"measurement": "concentration at 24 hr", "setting": "[2]; [3]", "result": 0.8, "unit": "ng/mL"}, {"measurement": "half-life", "setting": "[2]; iv, 4.8 mg/kg", "result": 3, "unit": "h"}, {"measurement": "Tmax", "setting": "[2]; iv, 4.8 mg/kg", "result": 0.083, "unit": "h"}]}]}
